One test has as its system rat. Kind of test: rat tail flick test for analgesic activity. In kind it is in vivo. To be noted: oral, 95% C.L. = 0.9 - 4.8. An excerpt: In the rat tail flick test for analgesic activity [D'Amour and Smith, J. Pharmacol. Exper. Therap.
A further test deals with mice. As to the kind of experiment: Acetic acid writhing test in mice (oral). In kind it is in vivo. To be noted: for Percent inhibition: acetic acid writhing, writhes counted for 20 minutes beginning 5 minutes after acid injection. The method, then:
The analgesic activity of the compound was evaluated in an acetic acid writhing test. The acetic acid writhing test used was modified from that described by Whittle, Brit J. Pharmacol., 22, 296 (1964). The number of writhes were counted for a 20 minute period beginning 5 minutes after the injection of the acid. Analgetic potency was calculated from the difference between the test groups and their controls.
Acetic acid writhing test in mice (oral)
For orientation: Writhing tests count abdominal constrictions after an irritant is injected.

Take `CCCCCC(C)C(C)c1cc(O)c2c(c1)OC(C)(C)C1=C2CCCS1` (stereo not drawn) [Compound I, 1,2-dihydro-5,5-dimethyl-10-hydroxy-8-(3-methyl-2-octyl)-3H,5H-thiopyrano[2,3-c][1]benzopyran]: the ED50 turned out to be 2.7 mg/kg in the test with rat and 10.8 mg/kg in the test with mice (Mus musculus, oral, 95% C.L. = 9.2 - 12.4). For the same molecule, the Percent inhibition is 20.7% in the test on mice (5 mg/kg p.o.), 48.9% with mice (10 mg/kg p.o.), 74.0% in the test with mice (20 mg/kg p.o.) and 95.6% in the test on mice (40 mg/kg p.o.).

As a reminder, the ED50 is the midpoint of the dose-response relation. Higher therefore signals a need for a large dose.

For the origin of these results see patent publication US3934024A, “Method of producing analgesia and compositions useful therein” (Sharps Associates, priority 1975, dated 1976).
